For series [1], the system named is bleomycin-induced respiratory impairment. As to the kind of experiment: Respiratory measurements by whole body plethysmography, BLM rat model, combination study (Example 3, Table E6). In kind it is in vivo, rat (male Sprague Dawley). The arrangement: Tidal Volume: unit not given here. As to conditions: for Expiratory Time / Inspiratory Time / Peak Expiratory Flow / Peak Inspiratory Flow / Tidal Volume / Respiratory Rate / Respiratory Minute Volume: mean; for Respiratory Rate: in breaths/min (unit assumed); for Respiratory Minute Volume: in mL/min (unit assumed). The method, then: (§1) PBS or BLM was administered under isoflurane anesthesia. Excess rats were induced with BLM and used to replace any animals with excessive body weight loss.
(§2) All treatments commenced on Day 9.
(§3) In-life, body weights were measured and clinical observations were conducted daily. On Days 8, 15 and 21, animals were removed from their home cages and placed individually into whole body plethysmography chambers. After a 20-minute acclimatization phase, respiratory parameters were recorded for 10 minutes. Pre-study and on Days 10 and Day 17, whole blood was obtained from the tail vein and processed to serum for measurement of HRS^FC1.

Series [2] in a line: Body weight, BLM rat model, combination study (Example 3). In kind it is in vivo, rat (male Sprague Dawley). As to conditions: BLM-induced rats; Nintedanib, Pirfenidone or Test Article (HRS^FC1 3 mg/kg IV weekly), alone or in combination, from Day 9. The method, then:
as §1, §2, §3

Series [3] has as its system bleomycin-induced lung fibrosis. Nature of the series: Histological fibrosis (modified Ashcroft) score, BLM rat model, combination study (Example 3). The class given is in vivo, rat (male Sprague Dawley). As to conditions: BLM-induced rats; alone or in combination, vs PO plus IV vehicles; data not shown. The method, then: (§4) The five lung lobes were collected and weighed. On Day 17, the right accessory lobe was retained and desiccated to obtain dry weight. The remaining right lung lobes were inflated and fixed in 10% neutral buffered formalin and embedded in paraffin for histological analysis. An approximately 50 mg piece of the left lung lobe was snap frozen and stored at −80° C. for potential RNA analysis. The remainder of the lobe was also snap frozen until analyzed for collagen content.
(§5) Sections for histology were stained using picrosirius red and were scored in a blinded fashion (1 score for each of the 3-4 lobes) by a veterinary pathologist using a modified Ashcroft score (Hubner et al., 2008). Hydroxyproline content was determined in the left lung lobe using a mass spectrometry method.
(§6) Slides were read by a veterinary pathologist and each of the 3 lobes evaluated was assigned 4 score types [Ashcroft for fibrosis (scores range from 0 to 8), perivascular/peribronchiolar inflammatory cell infiltrate (scores range from 0 to 5), interstitial/alveolar inflammatory cell infiltrate (scores range from 0 to 5), type II pneumocyte hyperplasia (scores range from 0 to 5)].

In series [4] the test system is bleomycin-induced lung inflammation. Nature of the series: Interstitial/alveolar inflammatory cell infiltrate score, BLM rat model, combination study (Example 3). The class given is in vivo, rat (male Sprague Dawley). As to conditions: BLM-induced rats; alone or in combination, vs PO plus IV vehicles; data not shown. As for the experimental part: as §4, §5, §6
Series [5] relates to bleomycin-induced lung fibrosis. Nature of the series: Survival, BLM-induced lung fibrosis mouse model (Example 1, Table E2). In kind it is in vivo, mouse (male C57Bl/6J). As to conditions: for Survival (number of animals surviving to study day): Dex. 0.25 mg/kg PO, BLM mice, 12 at start. As for the experimental part: (§7) Lung inflammation and fibrosis were induced in male C57Bl/6J mice by oropharyngeal administration of BLM. After the habituation phase mice were randomized based on body weight over the different groups. Under isoflurane anesthesia, 50 μl PBS or BLM was dripped onto the vocal cords facilitating aspiration. Mice were sacrificed at day 21 using a terminal bleed under isoflurane anesthesia.
(§8) Daily oral treatments commenced on Day 0, while daily IV treatments commenced on Day 8. Dosing was planned to continue until the day of termination (Day 21), however, due to high mortality in IV treated groups (see results), IV dosing was skipped on Day 19 and Day 20. […] Subsequently, the mice received 8% D20 (Kinemed, Emeryville) drinking water until sacrifice to maintain labeling of newly formed collagen. Body weight was monitored three times a week.
The study commenced with 7 animals in the non-diseased control group and 12 animals in the BLM-induced groups. Survival is show in Table E2 below.

Series [6] can be described thus: Body weight, BLM mouse model (Example 1). As to conditions: BLM-induced mice; daily PO from Day 0: dexamethasone 0.25 mg/kg, Nintedanib 60 mg/kg. The class given is in vivo, mouse (male C57Bl/6J). The method, then: as §7, §8
The test system of series [7] is bleomycin-induced lung fibrosis. Nature of the series: Lung wet and dry weight, BLM mouse model (Example 1). The class given is in vivo, mouse (male C57Bl/6J). As to conditions: BLM-induced mice; dexamethasone 0.25 mg/kg PO daily from Day 0. The method, then: as §7, §8
(§9) The five lung lobes were collected and isolated. Wet weight of the medial and accessory lung lobes was recorded. The lobes were then snap frozen and stored at <−70° C. until use for hydroxyproline analysis. The left lung lobe was inflated and fixed for 48 hours in 4% formaldehyde and embedded in paraffin for histological analysis. The cranial lung lobe was snap frozen and stored at −80° C. until shipment to Kinemed for the determination of new collagen formation.

The test system is the same in series [8]. Nature of the series: Histological fibrosis (modified Ashcroft) score, BLM mouse model (Example 1). As to conditions: BLM-induced mice; dexamethasone 0.25 mg/kg/dose from day of BLM instillation; Summary value, significant. In kind it is in vivo, mouse (male C57Bl/6J). As for the experimental part:
as §9
Sections of the left lung lobe were stained using Masson's Trichrome and were scored in a blinded fashion using a modified Ashcroft score (Hubner et al., BioTechniques. 44:507-511, 514-507, 2008). Hydroxyproline content was determined in the medial and accessory lung lobes using acid hydrolysis followed by a chromogenic assay (QuickZyme Biosciences, Leiden, Netherlands). Newly formed collagen was measured in the cranial lung lobe by Kinemed Inc., Emeryville, USA using the fraction of body water enriched in 2H for normalization.

Series [9] in a line: Serum HRS^FC1 levels by sandwich ELISA, BLM rat model (Example 3). In kind it is in vivo, rat (male Sprague Dawley). As to conditions: for Serum levels of HRS^FC1 ~24 hours post dose, vs HRS^FC1 plus oral vehicle: FIG. 6; for Amount of HRS^FC1 in serum 24 hours after IV injection: second confirmatory study, identical methods, data not shown. The method, then:
as §2, §3
Serum samples from animals treated with HRS^FC1 were used to determine levels of the protein in systemic circulation using standard sandwich ELISA techniques with antibodies that capture the HRS moiety and detect the Fc portion of the fusion protein.
All statistical analyses were performed using GraphPad Prism (GraphPad Software, San Diego, Calif.). Groups were compared using the one-way ANOVA test (histology, lung weights, collagen content) or two-way repeated measures ANOVA test (pharmacokinetics), followed, when appropriate by a post-hoc Dunnett test.
(In general: In an ELISA, binding on a coated surface is turned into a signal by an enzyme label.)

Setting [10] is: Day 8 (prior to any treatments), Pirf. PO + Vehicle IV group.

As to `Cc1ccc(=O)n(-c2ccccc2)c1` [Pirf.], in series [1] (setting [10]), the Expiratory Time was found to be 0.153 s, the Inspiratory Time came to 0.114 s, the “Peak Expiratory Flow” value is reported as 19.5 and the “Peak Inspiratory Flow” value is on record as 17.5. For the same compound, in series [1] (setting [10]), the “Tidal Volume” value is listed as 1.24, the “Respiratory Rate” value came out at 247.6 and the “Respiratory Minute Volume” value was 314.8. Besides, in series [1] (Day 15, Pirf. PO + Vehicle IV), the Expiratory Time turned out to be 0.193 s, the Inspiratory Time stood at 0.135 s, the “Peak Expiratory Flow” value was 15.0 and the “Peak Inspiratory Flow” value is recorded as 15.6. Further, in series [1] (Day 15, Pirf. PO + Vehicle IV), the “Tidal Volume” value is 1.23, the “Respiratory Rate” value is on record as 206.2 and the “Respiratory Minute Volume” value was 260.2. In addition, in series [1] (Day 21, Pirf. PO + Vehicle IV), the Expiratory Time came to 0.234 s, the Inspiratory Time came out at 0.148 s, the “Peak Expiratory Flow” value was found to be 13.0 and the “Peak Inspiratory Flow” value was determined as 15.8. Also, in [1] (Day 21, Pirf. PO + Vehicle IV), the “Tidal Volume” value worked out at 1.43, the “Respiratory Rate” value worked out at 186.5 and the “Respiratory Minute Volume” value is 259.6.

In the case of `Cc1ccc(=O)n(-c2ccccc2)c1` [Pirfenidone, pirfenidone], the “Body weight curves vs respective controls” value in [2] is given as “None of the groups treated with Nintedanib, Pirfenidone or Test Article alone or in combination had body weight curves that significantly differed”. Moreover, the “BLM-induced alterations in respiratory parameters” value in series [1] (BLM-induced rats, Day 15 and Day 21, Nintedanib, Pirfenidone or Test Article (HRS^FC1)) was “did not significantly impact”. Also, the “Interstitial inflammatory cell infiltrate (as printed in the Ashcroft score paragraph)” value in [3] is listed as “no significant effect”. For the same compound, the “Interstitial inflammatory cell infiltrate” value in series [4] is “no significant effect”.

`C[C@@H]1C[C@H]2[C@@H]3CCC4=CC(=O)C=C[C@]4(C)[C@@]3(F)[C@@H](O)C[C@]2(C)[C@@]1(O)C(=O)CO` [dexamethasone]: the Survival rate in series [5] (BLM-induced mice to Day 21, daily PO from Day 0: dexamethasone 0.25 mg/kg, Nintedanib 60 mg/kg) is 75%. In addition, the “Survival (number of animals surviving to study day)” value is given as 12 in [5] (Day 11); 12 in [5] (Day 12); 11 in [5] (Day 13); 10 in [5] (Day 14); 10 in [5] (Day 15); 10 in [5] (Day 16). Also, the “Survival (number of animals surviving to study day)” value was 10 in [5] (Day 17); 9 in [5] (Day 18); 9 in series [5] (Day 19); 9 in [5] (Day 20); 9 in series [5] (Day 21). The “Body weight, of initial body weights” value in series [6] is reported as “around 90%”. Also, the “Decrease of lung wet weight compared to PO vehicle group” value in series [7] turned out to be 15.6%. For the same compound, the “Improvement of Ashcroft fibrosis score” value in [8] is given as 11.3%.

Regarding “HRS^FC1: Test Article of Examples 2 and 3; HRS-Fc fusion protein Fc-HRS(2-60)”, the “Serum levels of HRS^FC1, change between Days 17 and 22” value in series [9] (BLM-induced rats, 3 mg/kg IV on Days 9 and 16) is recorded as “decreased”. Also, the “Serum levels of HRS^FC1” value in series [9] (BLM-induced rats, 3 mg/kg IV on Days 9 and 16, Days 10, 17 and 22) is “detectable”. In addition, the “Serum levels of HRS^FC1 ~24 hours post dose, vs HRS^FC1 plus oral vehicle” value in series [9] (BLM-induced rats, concomitant oral Nintedanib 60 mg/kg once daily) was “significantly increased”; in series [9] (BLM-induced rats, concomitant oral Pirfenidone 70 mg/kg per dose three times daily), “significantly increased”. For the same compound, the “Amount of HRS^FC1 in serum 24 hours after IV injection” value in [9] (concomitant Nintedanib) and in [9] (concomitant Pirfenidone) was “increased” throughout.
